For one test, the target named is T1, KCNQ2/3 channels (Homo sapiens, UniProt O43525+O43526).
T1 construct: expressed in transfected cells; host or cells: CHO-K1
Nature of the test: Fluorescence assay using a voltage sensitive dye (fluorimetry). The class given is cell-based. The settings on record: CHO-K1 cells expressing KCNQ2/3; for Emax: plateau effect relative to saturated Retigabine (50 μM), read-out: Fluorimetry % efficacy (retigabine = 100%); for EC50: voltage-sensitive dye, KCl depolarization, read-out: Fluorimetry EC50/IC50. From the text: Method I. Fluorescence Assay Using a Voltage Sensitive Dye (Fluorimetry)
The modulation of the KCNQ opening state (and consequently the voltage potential of a cell) by test compounds such as compounds according to the present invention results in an increased or reduced amount of a voltage-sensitive dye in the cytoplasm of the cells tested. These voltage-sensitive dyes are fluorescent dyes and, therefore, are forming the link between cell potential influenced by KCNQ modulation and fluorescence intensity. A KCNQ agonist leads to an opening of the channel, potassium and dye efflux, a following hyperpolarization and a reduction of the inner fluorescence intensity in a kinetic protocol. If applying an ion jump by KCl depolarization, KCNQ agonists increase the ΔF/F value. An antagonist performs vice versa, respectively.
The ‘fluorimetry EC50’ is the half maximum effective concentration (EC50), where the concentration of a drug/compound induces a response halfway between the baseline and maximum plateau effect. In other words, said value represents the concentration of a compound, where 50% of its maximal effect in the fluorimetric assay is observed if the substance concentration is graphed against the corresponding ΔF/F values (for which the calculation method is described below). Therefore, ‘fluorimetry EC50’ is a measure for the compound potency. The compound efficacy is mirrored by ‘fluorimetry % efficacy’ (‘% Efficacy’) and refers to the maximum response achievable by the test compound, i.e. the plateau effect. This drug's plateau effect is related to the plateau effect, which can be achieved by applying a saturated concentration of a reference compound, e.g. Retigabine (50 μM), in independent wells of the same experimental plate or series. A compound showing 100% efficacy is as efficacious as the reference compound (Retigabine) with a saturated concentration.
[…] CHO-K1 cells expressing KCNQ2/3 channels are cultivated adherently at 37° C., 5% CO2 and 95% humidity in cell culture bottles (e.g. 80 cm^2 TC flasks, Nunc) with DMEM-high glucose (Sigma Aldrich, D7777) including 10% FCS (PAN Biotech, e.g. 3302-P270521) or alternatively MEM Alpha Medium (1×, liquid, Invitrogen, #22571), 10% fetal calf serum (FCS) (Invitrogen, #10270-106, heat-inactivated) and the necessary selection antibiotics.
Before being sown out for the measurements, the cells are washed with 1× DPBS buffer Ca^2+/Mg^2+-free (e.g. Invitrogen, #14190-094) and detached from the bottom of the culture vessel by using Accutase (PAA Laboratories, #L11-007) (incubation with Accutase for 15 min at 37° C.). The cell number is determined using a CASY™ cell counter (TCC, Schärfe System). Depending on the optimal density for each individual cell line, 20,000-30,000 cells/well/100 μl are seeded onto 96-well Corning™ CellBIND™ assay plates (Flat Clear Bottom Black Polystyrene Microplates, #3340). Freshly seeded cells are then left to settle for one hour at room temperature, followed by incubation for 24 hours at 37° C., 5% CO2 and 95% humidity.
The voltage-sensitive fluorescent dye from the Membrane Potential Assay Kit (Red™ Bulk format part R8123 for FLIPR, MDS Analytical Technologies™) is prepared by dissolving the contents of one vessel Membrane Potential Assay Kit Red Component A in 200 ml of extracellular buffer (ES buffer, 120 mM NaCl, 1 mM KCl, 10 mM HEPES, 2 mM CaCl2, 2 mM MgCl2, 10 mM glucose; pH 7.4). After removal of the nutrient medium, the cells are washed once with 200 μl of ES buffer, then loaded for 45 min at room temperature in 100 μl of dye solution in the dark.
Fluorescence measurements are carried out in a BMG Labtech FLUOstar™, BMG Labtech NOVOstar™ or BMG Labtech POLARstar™ instrument (525 nm excitation, 560 nm emission, Bottom Read mode). […]

The next test has as its system Male Sprague-Dawley rats. The test can be described thus: Low-intensity tail flick test (rat). The settings on record: for ED50: po, peroral, at time of maximum efficacy. It counts as in vivo. The method, then:
Method II. Low-Intensity Tail Flick Test (Rat)
In the low-intensity tail flick test, the determination of the antinociceptive effect of the compounds according to the invention towards an acute noxious thermal stimulus is carried out by measuring the withdrawal reflex of the rat tail (tail flick) in response to a radiant heat beam (analgesia meter; model 2011 of the company Rhema Labortechnik, Hofheim, Germany) according to the method described by D'Amour and Smith (J. Pharm. Exp. Ther. 72, 74 79 (1941). To this end, the rats were placed in a plexiglas restrainer, and a low-intensity radiant heat beam (48° C.) was focused onto the dorsal surface of the tail root. The stimulus intensity was adjusted to result in a mean pre-drug control withdrawal latency of about 7 s, thus also allowing a supraspinal modulation of the spinally mediated acute nociceptive reflex. A cutoff time of 30 s was applied to avoid tissue damage. Male Sprague-Dawley rats (Janvier, Le Genest St. Isle, Frankreich) with weights of 200-250 g were used. 10 rats were used per group. Before administration of a compound according to the invention, the animals were pre-tested twice in the course of five minutes and the mean of these measurements was calculated as the pre-test mean. The antinociceptive effect was determined at 20, 40 and 60 min after peroral compound administration. The antinociceptive effect was calculated based on the increase in the tail withdrawal latency according to the following formula and is expressed as percentage of the maximum possible effect (MPE [%]): MPE=[(T1−T0)/(T2−T0)]*100
In this, T0 is the control latency time before and T1 the latency time after administration of the compound, T2 is the cutoff time and MPE is the maximum possible effect. Employing variant analysis (repeated measures ANOVA) allowed testing of statistically significant differences between the compounds according to the invention and the vehicle group. The significance level was set to p≦0.05. To determine the dose dependency, the particular compound according to the invention was administered in 3-5 logarithmically increasing doses, including a threshold dose and a maximum effective dose, and the ED50 values were determined with the aid of regression analysis. The ED50 calculation was performed at the time of maximum efficacy (usually 20 min after administration of the compounds).
(In general: Hot-plate and tail-flick tests time the reaction to a heat stimulus.)

One may read the ED50 as the dose at which the effect has come halfway, by size or by number of responders. Low readings indicate greater potency, high ones weaker potency.

The structures appear in SMILES notation.

As to `Cc1cc(N2CCOCC2)cc(C(C)C)c1C(=O)NCc1ccc(Cl)cc1` [Example 14, N-[(4-Chlorophenyl)-methyl]-2-isopropyl-6-methyl-4-morpholin-4-yl-benzamide], on KCNQ2/3 channels, the Emax stood at 175% and the EC50 amounted to 0.136 µM. Besides, in the test with Male Sprague-Dawley rats (dose 10 mg/kg), the “Low intensity tail flick, rat, peroral, MPE (dose)” value came to 92%. The compound further registered an ED50 with Male Sprague-Dawley rats of 3.6 mg/kg.
With `Cc1cc(N2CCOCC2)cc(C(C)C)c1C(=O)NCc1ccc(F)cc1` [Example 17, N-[(4-Fluorophenyl)methyl]-2-isopropyl-6-methyl-4-morpholin-4-yl-benzamide], on KCNQ2/3 channels, the Emax was 179% and the EC50 worked out at 0.663 µM. The “Low intensity tail flick, rat, peroral, MPE (dose)” value in the test on Male Sprague-Dawley rats (dose 14.7 mg/kg) was 100%. This compound showed an ED50 in the test on Male Sprague-Dawley rats of 2.5 mg/kg.
In the case of `Cc1cc(N2CCOCC2)cc(C2CC2)c1C(=O)NCC[C@H](O)C(C)(C)C` [Example 29, 2-Cyclopropyl-N-[(3S)-3-hydroxy-4,4-dimethyl-pentyl]-6-methyl-4-morpholin-4-yl-benzamide], at KCNQ2/3 channels, the Emax was determined as 195% and the EC50 came out at 1.81 µM.
In the case of `Cc1cc(N2CCOCC2)cc(C(C)C)c1C(=O)NCC[C@@H](O)C(C)(C)C` [Example 30, N-[(3R)-3-Hydroxy-4,4-dimethyl-pentyl]-2-isopropyl-6-methyl-4-morpholin-4-yl-benzamide], on KCNQ2/3 channels, the Emax turned out to be 212% and the EC50 worked out at 3.1 µM.
As for `Cc1cc(N2CCOCC2)cc(C(C)C)c1C(=O)NCC[C@H](O)C(C)(C)C` [Example 31, N-[(3S)-3-Hydroxy-4,4-dimethyl-pentyl]-2-isopropyl-6-methyl-4-morpholin-4-yl-benzamide], on KCNQ2/3 channels, the Emax came out at 230% and the EC50 was 0.416 µM.
In the same order, the values of `Cc1cc(N2CCOCC2)cc(C2CC2)c1C(=O)NCC(O)CC(C)(C)C` (stereo not shown) [Example 32, 2-Cyclopropyl-N-(2-hydroxy-4,4-dimethyl-pentyl)-6-methyl-4-morpholin-4-yl-benzamide] are 159% and 3.81 µM.
In the same order, the values of `Cc1cc(N2CCOCC2)cc(C(C)C)c1C(=O)NCC(O)CC(C)(C)C` (stereo not shown) [Example 33, N-(2-Hydroxy-4,4-dimethyl-pentyl)-2-isopropyl-6-methyl-4-morpholin-4-yl-benzamide] are 216% and 1.37 µM.
The matching figures for `Cc1cc(N2CCOCC2)cc(C(C)C)c1C(=O)NCc1ccc(Cl)cn1` [Example 34, N-[(5-Chloro-pyridin-2-yl)-methyl]-2-isopropyl-6-methyl-4-morpholin-4-yl-benzamide]: 156% and 3.61 µM.
For `Cc1cc(N2CCOCC2)cc(C(C)C)c1C(=O)NCc1ccc(C(F)(F)F)cn1` [Example 35, 2-Isopropyl-6-methyl-4-morpholin-4-yl-N-[[5-(trifluoromethyl)-pyridin-2-yl]-methyl]-benzamide], on KCNQ2/3 channels, the Emax amounted to 134% and the EC50 amounted to 3.07 µM.
The matching figures for `Cc1cc(N2CCOCC2)cc(C2CC2)c1C(=O)NCc1ccc(C(F)(F)F)cn1` [Example 36, 2-Cyclopropyl-6-methyl-4-morpholin-4-yl-N-[[5-(trifluoromethyl)-pyridin-2-yl]-methyl]-benzamide]: 89% and 5.26 µM.
In the same order, the values of `Cc1cc(N2CCOCC2)cc(C2CCOC2)c1C(=O)NCc1ccc(Cl)cc1` (stereo not shown) [Example 37, N-[(4-Chlorophenyl)-methyl]-2-methyl-4-morpholin-4-yl-6-tetrahydro-furan-3-yl-benzamide] are 166% and 1.69 µM.
On to `Cc1cc(N2CCOCC2)cc(N2CC[C@@H](F)C2)c1C(=O)NCc1ccc(Cl)cc1` [Example 38, N-[(4-Chlorophenyl)-methyl]-2-[(3R)-3-fluoro-pyrrolidin-1-yl]-6-methyl-4-morpholin-4-yl-benzamide], for which, at KCNQ2/3 channels, the Emax is 167% and the EC50 stood at 0.748 µM.
The matching figures for `CC(C)c1cc(N2CCOCC2)cc(F)c1C(=O)NCc1ccc(Cl)cc1` [Example 39, N-[(4-Chlorophenyl)-methyl]-2-fluoro-6-isopropyl-4-morpholin-4-yl-benzamide]: 196% and 0.217 µM.
The matching figures for `COc1cc(N2CCOCC2)cc(C(C)C)c1C(=O)NCc1ccc(Cl)cc1` [Example 40, N-[(4-Chlorophenyl)-methyl]-2-isopropyl-6-methoxy-4-morpholin-4-yl-benzamide]: 196% and 0.165 µM.
As to `CCc1cc(N2CCOCC2)cc(CC)c1C(=O)NCc1ccc(Cl)cc1` [Example 41, N-[(4-Chlorophenyl)-methyl]-2,6-diethyl-4-morpholin-4-yl-benzamide], on KCNQ2/3 channels, the Emax was found to be 181% and the EC50 stood at 0.506 µM.

These data come from US9108936B2, “Substituted 4-aminobenzamides as KCNQ2/3 modulators” (GRUENENTHAL GMBH, priority 2012, dated 2015).
